Series [1] has as its system Normal White Albino New Zealand Rabbits. The series can be described thus: Reduction of intraocular pressure (IOP), pneuma-tonometer. It counts as in vivo. Here is the method:
Two groups of normal albino white New Zealand rabbits were used for this study. Control group: 4 animals Experimental group: 8 animals At time 0, intraocular pressure of both eyes of each animal in control and experimental groups was determined. All animals received the treatment either with saline (control group) or the tested compound (experimental group) immediately after 0 hour intraocular pressure reading. Control group received 50 µl of vehicle in both eyes . Experimental animals received 50 µl of vehicle in the left eyes and 50 µl of the test solution in the right eyes. Intraocular pressure was measured at 30 minutes, 1, 2, and 4 hours. The effects of tested drug on intraocular pressure of the rabbit was determined using a Digilab Model 30D pneuma-tonometer. Initial IOP readings were obtained in all animals after the administration of 50 ul of 0.5% Opthaine (proparacaine hydrochloride). A group of 4 rabbits served as controls and were treated with 50 µl of saline in both eyes. Eight additional rabbits received 50 ul of test drug in the right eye, and 50 µl of drug vehicle was administered in the contralateral left eye. IOP readings were made 30 minutes, 1 hours, 2 hours, and 4 hours after drug administration. […] This procedure permitted the comparison of drug treated eye with the contralateral vehicle treated eye, and also with saline treated eye. For purposes of statistical analysis comparisons were made between the drug treated IOP values and vehicle treated-contralateral eyes and also the saline treated IOP values.

A further series relates to Monkeys. The series can be described thus: Toxicity by topical ocular application in monkeys. It counts as in vivo. The following applies: same concentrations and dosages, once a day for one week. The method, then:
Monkeys were treated similarly with the same concentrations and dosages of methyl 9-oxo-lla- methyl-15a-hydroxy-16-phenoxy-17,18,19,20-tetranorprosta-4,5,13(E)-trienoate once a day for one week.

For another series, the system named is rabbits. The series can be described thus: Toxicity by topical ocular application in rabbits. The following applies: up to 0.2 mg/ml, 0.1 ml/eye, from 12 times in 6 hours to up to 6 times/day for a week. It counts as in vivo. Here is the method: Studies were conducted by topical ocular application in rabbits with concentrations up to 0.2 mg/ml of methyl 9-oxo-lla-methyl-15a-hydroxy-16-phenoxy-17,18,19,20-tetranorprosta-4,5,13(E)-trienoate. The dose volume was 0.1 ml/eye. Duration of administration varied from 12 times in 6 hours to up to 6 times/day for a week.

The test system of series [2] is Normal White Albino New Zealand Rabbits. The series can be described thus: Reduction of intraocular pressure (IOP), pneuma-tonometer. The following applies: rabbit, in vivo.

Take `COC(=O)CCC=C=CC[C@H]1C(=O)C[C@@H](C)[C@@H]1/C=C/[C@@H](O)COc1ccccc1` [Compound 1, methyl 9-oxo-11α-methyl-15α-hydroxy-16-phenoxy-17,18,19,20-tetranorprosta-4,5,13(E)-trienoate]: the “intraocular pressure (effect in words)” value in series [1] (0.01% solution, right (treated) eyes of the experimental group) is given as “decreased significantly”. Further, the Intraocular pressure was 21.63 ± .71 mmHg in series [1] (Compound 1 0.02%, 0 hr (reading before treatment)); 18.13 ± .44 mmHg in series [1] (Compound 1 0.02%, 1/2 hr); 17.25 ± .59 mmHg in series [1] (Compound 1 0.02%, 1 hr); 16.63 ± .78 mmHg in series [1] (Compound 1 0.02%, 2 hr); 18.75 ± .68 mmHg in series [1] (Compound 1 0.02%, 4 hr); 23.75 ± .53 mmHg in series [1] (Compound 1 0.2%, 0 hr (reading before treatment)). For the same molecule, the Intraocular pressure in series [1] (Compound 1 0.2%, 1/2 hr) is on record as 19.25 ± .49 mmHg; in series [1] (Compound 1 0.2%, 1 hr), 18.88 ± .64 mmHg; in series [1] (Compound 1 0.2%, 2 hr) it was 18.75 ± .45 mmHg; in series [1] (Compound 1 0.2%, 4 hr) it was 19.88 ± .35 mmHg. For the same molecule, the ocular toxicity result in the series on Monkeys and in the series on rabbits was “No ocular toxicity occurred” throughout.

Turning to `CCCCC[C@H](O)/C=C/[C@H]1[C@H](O)CC(=O)[C@@H]1CCCCCCC(=O)O` [PGE1], the Intraocular pressure is reported as 20.67 ± 1.09 mmHg in series [1] (PGE1 0.01%, 0 hr (reading before treatment)); 38.17 ± 1.28 mmHg in series [1] (PGE1 0.01%, 1/2 hr); 31.17 ± .91 mmHg in series [1] (PGE1 0.01%, 1 hr); 15.33 ± .56 mmHg in series [1] (PGE1 0.01%, 2 hr); 16.33 ± 1.17 mmHg in series [1] (PGE1 0.01%, 4 hr); 19.00 ± 1.03 mmHg in series [1] (PGE1 0.01%, 6 hr). The “transient increase in intraocular pressure at the time of administration” value in series [1] (rabbit, in vivo) is “transitory rise in intraocular pressure”. Further, in series [2], the eye irritation result is reported as “severe eye irritation”.

`CCCCC[C@H](O)/C=C/[C@H]1[C@H](O)CC(=O)[C@@H]1C/C=C\CCCC(=O)O` [PGE2]: the Intraocular pressure in series [1] (PGE2 0.025%, 0 hr (reading before treatment)) was 21.00 ± .85 mmHg; in series [1] (PGE2 0.025%, 1/2 hr) it was 47.63 ± 1.28 mmHg; in series [1] (PGE2 0.025%, 2.5 hr) it was 18.38 ± .82 mmHg; in series [1] (PGE2 0.025%, 4 hr), 16.00 ± .73 mmHg; in series [1] (PGE2 0.025%, 5 hr), 16.63 ± .38 mmHg. In series [1] (observed on administration, for PGE1 and PGE2 even at low doses), the eye irritation result is “severe eye irritation”. In addition, the “transient increase in intraocular pressure at the time of administration” value in series [1] (when first administered) is recorded as “transitory rise in intraocular pressure”.

The values are drawn from patent EP0170258A2, “11-Substituted-16-phenoxy and 16-substituted phenoxy-prostatrienoic acid derivatives” (priority 1984, dated 1986).
